Key:
[1] = target: ERα (Homo sapiens (Human), UniProt P03372); assay: Degradation effect of compound on ERα (ERα DuoSet IC ELISA in MCF-7 cells); type: cell-based; conditions: 24 h with compound, read-out: IC50 value of ERα degradation by compound
Protocol: In this test example, ERα DuoSet IC ELISA Kit (R&D, DYC5715) was used to detect the degradation effect of the compound on ERα. On the first day of the experiment, human breast cancer cells MCF-7 (the source was as above) were inoculated into a 24-well plate. The culture medium was an MEM culture medium containing 10% of activated-carbon-treated FBS (Tocyto, UT61204), 1% of pyruvic acid and 1% of nonessential amino acid. The inoculation density was 150,000 cells/well. The cells were cultured at 37° C., 5% CO2 for 24 h.
On the second day of the experiment, the compound to be tested was diluted in gradient and added to a 24-well plate containing cells. The cells were cultured for 24 h at 37° C., 5% CO2. ERα capture antibody was diluted to 1 μg/ml with PBS (Corning, 21-040-CVR) and added to a 96-well plate at 100 μL/well, and the plate was […] coated overnight at room temperature.
On the third day of the experiment, the coated 96-well plate was washed three times with PBS, 300 μL of a blocking solution (R&D, DY995) was added to each well, and the plate was blocked at room temperature for 1 h. The 24-well plate was washed once with PBS, and the residual liquid was sucked off. […] The diluted cell lysate was taken and added to the blocked 96-well plate, with 100 μL per well, and incubated at room temperature for 2 h. The plate was washed three times with a washing solution (R&D, WA126), and a primary antibody was then added. After incubation for 1 h, the 96-well plate was washed four times, a secondary antibody was added, and incubation was carried out at room temperature in the dark for 30 min. The plate was washed four times with the washing solution, and TMB (R&D, DY999) was added. After 15 minutes of development, the reaction was terminated with a stop solution (R&D, DY994), and the light absorption at 450 nm was read.

[2] = test system: Human breast cancer cells MCF-7; assay: MCF-7 cell proliferation experiment; type: cell-based; conditions: Homo sapiens, MCF7; MCF-7 cells, 72 hours, Cell Titer-Glo
Protocol: Test Example 2: MCF-7 Cell Proliferation Experiment
Human breast cancer cells MCF-7 (HTB-22, purchased from ATCC) were inoculated into a 96-well plate. The culture medium was an MEM (Hyclone, SH30024.01B) culture medium containing 10% of FBS (Gibco, 10099-141), 1% of pyruvic acid (Sigma, S8636), and 1% of nonessential amino acid (Sigma, M7145), and the inoculation density was 4,000 cells/well. The cells were cultured at 37° C., 5% CO2. The compound was prepared into a 20 mM stock solution, which was subjected to gradient dilution to a final concentration of […] with 100% DMSO (Sigma, D2650) and then diluted 20 folds with a culture medium containing 2% of FBS. After 24 hours of culture, the culture medium was removed, 90 μL of a culture medium containing 2% of FBS and 10 μL of drug were added to each well, while 10 μL of DMSO was added to the control group, and they were gently shaken and mixed. The blank group only contained 100 μL of 2% FBS culture medium. They were placed in an incubator and cultured at 37° C., 5% CO2. After 72 hours, 50 μL of mixed Cell Titer-Glo (Promega, G7571) was added. They were shaken and mixed uniformly, and placed at room temperature for 10 min. The chemiluminescence signal value was determined. The negative control was 0.5% DMSO well.

[3] = Stability in human liver microsomes in vitro; type: in vitro ADME; conditions: human liver microsomes; for half-life: microsome protein 1 mg/mL working solution, NADPH; for CLint scaled: scaled to liver; for microsomal CLint: read-out: CLint(mic)
Protocol: Test Example 4: Test for Stability in Human Liver Microsomes In Vitro Eight 96-well incubation plates were prepared and named [NT], Blank60 and NCF60, respectively. […] No test compound or control compound was added to Blank60 plate, and samples were taken after incubation for 60 min. NCF60 plate was incubated with a potassium phosphate buffer instead of an NADPH regeneration system solution (Sigma, N0505) for 60 min. […] Only the microsome working solution was added to Blank60 plate, and the incubation plates Blank60, T5, T15, T30, T45 and T60 except T0 and NCF60 were then placed in a water bath at 37° C. and pre-incubated for about 10 min. To the samples of T0 plate, 600 μL of a stop solution (acetonitrile:methanol (95:5, v/v) solution containing 100 ng/mL of tolbutamide (Sigma, T0891)) was added first, and the NADPH regeneration system working solution was then added. 98 μL of a potassium phosphate buffer was added to each well of NCF60 plate and incubated for 60 min. After the pre-incubation in the incubation plates Blank60, T5, T15, T30, T45 and T60 was completed, 98 μL of the NADPH regeneration system working solution was added to each sample well to initiate the reaction. After an appropriate incubation time (such as 5, 15, 30, 45 and 60 min), 600 μL of a stop solution was added to each sample well and the control sample well in Blank60, […] the reaction. All the sample plates were shaken uniformly and centrifuged at 3220×g for 20 min. 200 μL of test sample supernatant was separately taken and diluted in 200 μL of an aqueous solution containing 0.3% formic acid for LC-MS/MS analysis, and 100 μL of control sample supernatant was taken and diluted in 300 μL of pure water for LC-MS/MS analysis. Calculation was performed according to the following formula: [formula] [formula] [formula] [formula] [formula] [formula]

[4] = target: GST-ERα-LBD (Homo sapiens (Human), UniProt P03372); assay: ERα TR-FRET test; type: biochemical; conditions: estradiol final concentration 1.5 nM, biotin-SRC2
Sequence of GST-ERα-LBD (P03372 311-547): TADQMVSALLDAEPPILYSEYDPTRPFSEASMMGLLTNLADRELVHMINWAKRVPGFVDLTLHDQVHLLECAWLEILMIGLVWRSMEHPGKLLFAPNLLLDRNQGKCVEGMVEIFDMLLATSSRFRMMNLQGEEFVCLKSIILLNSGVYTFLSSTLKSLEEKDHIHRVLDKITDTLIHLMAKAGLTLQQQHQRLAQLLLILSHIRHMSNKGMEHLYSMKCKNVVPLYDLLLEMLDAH
Protocol: 1× Tris-HCl (Sigma, PHG0002) protein buffer was prepared and mixed for later use. The compound to be detected was prepared into a stock solution with a concentration of 2 mM and then subjected to serial 3-fold gradient dilution, resulting in a total of 10 concentrations.
Preparation of 1× protein mixed solution: firstly, 2× GST-ERα-LBD (Invitrogen, A15677)/MAb anti-GST-Eu (Cisbio, 61GSTKLA) mixed solution was prepared according to the following table.
2× biotin-SRC2/streptavidin-XL665 (Cisbio, 610SAXLA) mixed solution was prepared.
The above 2× GST-NR-LBD/ MAb anti-GST-Eu solution and 2× biotin-SRC2/streptavidin-XL665 solution were uniformly mixed at a volume ratio of 1:1; and the 1× protein mixed solution was added to each well of a 384-well plate, with 20 μL being added per well, the 384-well plate was put into a centrifuge and centrifuged at room temperature at 1000 rpm for 10 seconds, and it was taken out, then left to stand at room temperature for 3 h, and then read by EnVision multifunctional microplate reader.
The inhibition rate was calculated according to the following formula: […]
The data were imported into Graphpad Prism, and Log(agonist) vs. response-variable slope was used for curve fitting.
Y=Bottom+(Top−Bottom)/(1+10^((LogEC50−X)*HillSlope)) Fitting formula

Sequence of ERα (P03372 whole entry): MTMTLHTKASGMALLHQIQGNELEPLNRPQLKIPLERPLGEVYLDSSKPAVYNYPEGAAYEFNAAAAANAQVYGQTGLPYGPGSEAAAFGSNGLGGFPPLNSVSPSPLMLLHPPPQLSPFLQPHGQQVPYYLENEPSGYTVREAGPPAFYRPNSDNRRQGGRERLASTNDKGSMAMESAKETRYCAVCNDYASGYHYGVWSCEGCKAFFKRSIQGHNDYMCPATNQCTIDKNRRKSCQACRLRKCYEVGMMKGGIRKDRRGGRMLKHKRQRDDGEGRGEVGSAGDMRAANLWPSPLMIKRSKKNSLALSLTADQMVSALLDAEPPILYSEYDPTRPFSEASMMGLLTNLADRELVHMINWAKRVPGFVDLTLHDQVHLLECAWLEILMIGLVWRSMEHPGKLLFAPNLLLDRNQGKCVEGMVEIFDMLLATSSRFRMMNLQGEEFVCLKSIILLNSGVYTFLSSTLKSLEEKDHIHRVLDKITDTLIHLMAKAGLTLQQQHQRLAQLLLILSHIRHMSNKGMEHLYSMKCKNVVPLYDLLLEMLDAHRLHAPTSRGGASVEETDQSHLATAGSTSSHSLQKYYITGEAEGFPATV

| Compound | DC50 [1] | IC50 [2] | half-life [3] | CLint scaled [3] | microsomal CLint [3] | IC50 [4] |
| --- | --- | --- | --- | --- | --- | --- |
| CC(C)CN1[C@H](c2c(F)cc(OCCN3CC(CF)C3)cc2F)c2ccc3[nH]c(=O)oc3c2C[C@H]1C [Example 1] | 0.62 nM | 0.39 nM | 1.53 h | 13.6 mL/min/kg | 15.1 µL/min/mg | 9 nM |
| C[C@@H]1Cc2c(ccc3[nH]c(=O)oc23)[C@@H](c2c(F)cc(NC3CN(CCCF)C3)cc2F)N1CC(F)(F)CO [Example 9, (6S,8R)-7-(2,2-difluoro-3-hydroxypropyl)-6-(2,6-difluoro-4-((1-(3-fluoropropyl)azetidin-3-yl)amino)phenyl)-8-methyl-6,7,8,9-tetrahydrooxazolo[5,4-f]isoquinolin-2(3H)-one] | 0.39 nM | 0.19 nM | – | – | – | 21.6 nM |
| C[C@@H]1Cc2c(ccc3[nH]c(=O)oc23)[C@@H](c2c(F)cc(NC3CN(CCCF)C3)cc2F)N1CC(F)(F)F [Example 10, (6S,8R)-6-(2,6-difluoro-4-((1-(3-fluoropropyl)azetidin-3-yl)amino)phenyl)-8-methyl-7-(2,2,2-trifluoroethyl)-6,7,8,9-tetrahydrooxazolo[5,4-f]isoquinolin-2(3H)-one] | 0.41 nM | 0.2 nM | 1.94 h | 8.1 mL/min/kg | 9 µL/min/mg | 7.8 nM |
| C[C@@H]1Cc2c(ccc3[nH]c(=O)oc23)[C@@H](c2c(F)cc(OC3CN(CCCF)C3)cc2F)N1CC(F)(F)F [Example 12, (6S,8R)-6-(2,6-difluoro-4-((1-(3-fluoropropyl)azetidin-3-yl)oxy)phenyl)-8-methyl-7-(2,2,2-trifluoroethyl)-6,7,8,9-tetrahydrooxazolo[5,4-f]isoquinolin-2(3H)-one] | 0.57 nM | 0.49 nM | 1.73 h | 8.9 mL/min/kg | 9.8 µL/min/mg | 15.6 nM |
| C[C@@H]1Cc2c(ccc3[nH]c(=O)oc23)[C@@H](c2c(F)cc(N3CC4(CN(CCF)C4)C3)cc2F)N1CC(F)(F)CO [Example 14, (6S,8R)-7-(2,2-difluoro-3-hydroxypropyl)-6-(2,6-difluoro-4-(6-(2-fluoroethyl)-2,6-diazspiro[3.3]hept-2-yl)phenyl)-8-methyl-6,7,8,9-tetrahydrooxazolo[5,4-f]isoquinolin-2(3H)-one] | – | 0.44 nM | 1.82 h | 8.7 mL/min/kg | 9.5 µL/min/mg | 40.3 nM |
| COc1cc(NC2CN(CCCF)C2)ccc1[C@@H]1c2ccc3[nH]c(=O)oc3c2C[C@@H](C)N1CC(F)(F)F [Example 25, (6S,8R)-6-(4-((1-(3-fluoropropyl)azetidin-3-yl)amino)-2-methoxyphenyl)-8-methyl-7-(2,2,2-trifluoroethyl)-6,7,8,9-6,7,8,9-tetrahydrooxazolo[5,4-f]isoquinolin-2(3H)-one] | 0.34 nM | 0.24 nM | 1.76 h | 8.4 mL/min/kg | 9.6 µL/min/mg | 11.4 nM |
| C[C@@H]1Cc2c(ccc3[nH]c(=O)oc23)[C@@H](c2ccc(NC3CN(CCCF)C3)cn2)N1CC(F)(F)F [Example 26, (6S,8R)-6-(5-((1-(3-fluoropropane)azetidin-3-yl)amino)pyridin-2-yl)-8-methyl-7-(2,2,2-trifluoroethyl)-6,7,8,9-tetrahydroxazolo[5,4-f]isoquinolin-2(3H)-one] | – | 0.55 nM | – | – | – | 58.4 nM |
| COc1cc(O[C@H]2CCN(CCCF)C2)ccc1[C@@H]1c2ccc3[nH]c(=O)oc3c2C[C@@H](C)N1CC(F)(F)F [Example 30, (6S,8R)-6-(4-(((S)-1-(3-fluoropropyl)pyrrolidin-3-yl)oxy)-2-methoxyphenyl)-8-methyl-7-(2,2,2-trifluoroethyl)-6,7,8,9-tetrahydroxazolo[5,4-f]isoquinolin-2(3H)-one] | 0.35 nM | 0.21 nM | 1.58 h | 14.4 mL/min/kg | 15.8 µL/min/mg | 8.85 nM |
| COc1cc(NC2CN(CCCF)C2)ccc1[C@@H]1c2ccc3[nH]c(=O)oc3c2C[C@@H](C)N1CC1(F)CC1 [Example 31] | 0.75 nM | 0.85 nM | 1.39 h | 18.4 mL/min/kg | 17.5 µL/min/mg | 45.6 nM |
| COc1cc(NC2CN(CCCF)C2)ccc1[C@@H]1c2ccc3[nH]c(=O)oc3c2C[C@@H](C)N1CC(C)(F)F [Example 32] | 0.42 nM | 0.39 nM | 1.71 h | 9 mL/min/kg | 9.8 µL/min/mg | 14.7 nM |
| COc1cc(NC2CN(CCCF)C2)cc(Cl)c1[C@@H]1c2ccc3[nH]c(=O)oc3c2C[C@@H](C)N1CC(F)(F)F [Example 33, (6S,8R)-6-(4-((1-(3-fluoropropyl)azetidin-3-yl)amino)-2-methoxy-6-chloro-phenyl)-8-methyl-7-(2,2,2-trifluoroethyl)-6,7,8,9-6,7,8,9-tetrahydrooxazolo[5,4-f]isoquinolin-2(3H)-one] | 0.35 nM | 0.39 nM | 1.85 h | 7.9 mL/min/kg | 8.3 µL/min/mg | 11.8 nM |
